Tested on: MCF-7 breast cancer xenograft
Test: MCF-7 xenograft tumor model
Format: in vivo
Conditions: 20 mg/kg i.p. three times a week
Experimental: Twenty 6-8 week-old athymic nude female mice were obtained from Harlan. Two days before cancer cell injection, one estradiol pellet was embedded under the skin for each mouse and a new pellet was added twice at a one month interval. Following this, 1×10^6 MCF-7 cells […] mixed with equal volume of growth factor reduced matrigel (BD Biosciences) were injected into the fat pad of each of the 2nd pair mammary gland without clearing. The MCB-613 treatment which lasted for seven weeks was started approximately seven weeks after the cell injection when tumor sizes reached above 5 mm in diameter. Ten mice received MCB-613 (20 mg/kg) in saline by i.p. injection, whereas the control group contained 10 mice which received saline only. The compound was injected three times a week. The mice were weighed once a week and tumors were measured twice a week during the treatment period.
To further evaluate the anti-cancer potential of MCB-613, a MCF-7 breast cancer mouse xenograft model was employed to assess the tumor suppressive effects of MCB-613 in vivo. Tumors were established in athymic nude mice seven weeks after injection of MCF-7 cells into […] mammary fat pads. An MCB-613 treated group (n=10) received i.p. injection of the compound (20 mg/kg) three times a week, while a control group (n=10) was injected with a saline vehicle.

SMILES: CCC1CC(=Cc2cccnc2)C(=O)C(=Cc2cccnc2)C1 (stereo not drawn) [MCB-613, 4-Ethyl-2,6-bis-pyridin-3-ylmethylene-cyclohexanone]
- animal toxicity (7 weeks): did not lead to obvious animal toxicity
- body weights between control and treated groups (7 weeks): identical
- tumor volumes versus controls (after one week of treatment and throughout): significantly smaller than controls

Source: US11312676B2, “Small molecule stimulators of steroid receptor coactivator proteins and their use in the treatment of cancer” (BAYLOR COLLEGE OF MEDICINE, priority 2014, dated 2022)
